According to patent publication US8871753B2, “Macrocyclic compounds and their use as kinase inhibitors” (Incyte Corporation, priority 2008, dated 2014):
pIC50: −log10 of the molar value. Where a name gives a salt, the structure may show the parent alone.

Assays:
Format in all cases: biochemical
[1] = molecular target: T1, human JAK1 (a.a. 837-1142) (Homo sapiens, UniProt P23458); assay: In vitro JAK kinase assay (HTRF, phosphorylation of a biotinylated peptide), JAK1; settings: Table B1; read-out: JAK1 IC50
T1 construct: human JAK1 (a.a. 837-1142); His tag (N); made in house; host or cells: insect cells (baculovirus)
T1 sequence (P23458 849-1154): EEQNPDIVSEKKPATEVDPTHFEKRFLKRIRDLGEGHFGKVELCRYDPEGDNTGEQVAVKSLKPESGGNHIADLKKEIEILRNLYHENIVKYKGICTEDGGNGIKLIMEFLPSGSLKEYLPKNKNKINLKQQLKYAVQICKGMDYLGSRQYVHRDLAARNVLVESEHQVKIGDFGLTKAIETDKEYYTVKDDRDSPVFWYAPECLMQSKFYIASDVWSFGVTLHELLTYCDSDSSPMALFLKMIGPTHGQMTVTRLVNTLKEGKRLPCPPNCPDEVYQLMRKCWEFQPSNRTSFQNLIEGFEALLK
Method in brief: (§1)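 Kinase activity was measured as phosphorylation of a biotinylated peptide, with ATP at 90 μM for JAK1, 30 μM for JAK2 and 3 μM for JAK3. Reactions ran 1 hr at room temperature, were stopped with EDTA plus SA-APC and Eu-Py20, and were read by HTRF after 40 minutes of antibody binding.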

[2] = molecular target: T2, human JAK2 (a.a. 828-1132) (Homo sapiens, UniProt O60674); assay: In vitro JAK kinase assay (HTRF, phosphorylation of a biotinylated peptide), JAK2; settings: Table B1
T2 construct: JAK2 (a.a. 828-1132); His tag (N); made in house; host or cells: insect cells (baculovirus)
T2 sequence (O60674 828-1132): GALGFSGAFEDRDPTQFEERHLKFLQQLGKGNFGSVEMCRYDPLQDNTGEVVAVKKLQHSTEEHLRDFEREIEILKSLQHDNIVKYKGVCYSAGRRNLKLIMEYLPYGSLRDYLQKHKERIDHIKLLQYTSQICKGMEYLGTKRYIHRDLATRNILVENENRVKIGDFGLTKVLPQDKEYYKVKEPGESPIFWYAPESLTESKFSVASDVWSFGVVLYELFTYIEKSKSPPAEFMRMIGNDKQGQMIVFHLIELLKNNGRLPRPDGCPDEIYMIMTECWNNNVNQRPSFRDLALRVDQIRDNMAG
Method in brief: as §1

[3] = molecular target: T3, human JAK3 (a.a. 781-1124) (Homo sapiens, UniProt P52333); assay: In vitro JAK kinase assay (HTRF, phosphorylation of a biotinylated peptide), JAK3; settings: Table B1
T3 construct: JAK3 (a.a. 781-1124); His tag (N); made in house; host or cells: insect cells (baculovirus)
T3 sequence (P52333 781-1124): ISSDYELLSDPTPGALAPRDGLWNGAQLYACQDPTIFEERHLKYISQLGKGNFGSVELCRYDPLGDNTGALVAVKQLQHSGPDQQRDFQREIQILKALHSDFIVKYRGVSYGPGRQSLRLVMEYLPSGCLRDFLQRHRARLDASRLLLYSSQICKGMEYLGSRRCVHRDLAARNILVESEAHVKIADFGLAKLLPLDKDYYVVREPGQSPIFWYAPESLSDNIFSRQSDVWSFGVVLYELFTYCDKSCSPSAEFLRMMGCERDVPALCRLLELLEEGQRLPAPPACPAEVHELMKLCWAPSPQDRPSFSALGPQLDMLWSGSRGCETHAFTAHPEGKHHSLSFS
Method in brief: as §1

TYK2 = TYK2 (Homo sapiens, UniProt P29597); assay: TYK2 kinase inhibition (Table A1); settings: Table B1
Sequence of TYK2 (P29597 whole entry): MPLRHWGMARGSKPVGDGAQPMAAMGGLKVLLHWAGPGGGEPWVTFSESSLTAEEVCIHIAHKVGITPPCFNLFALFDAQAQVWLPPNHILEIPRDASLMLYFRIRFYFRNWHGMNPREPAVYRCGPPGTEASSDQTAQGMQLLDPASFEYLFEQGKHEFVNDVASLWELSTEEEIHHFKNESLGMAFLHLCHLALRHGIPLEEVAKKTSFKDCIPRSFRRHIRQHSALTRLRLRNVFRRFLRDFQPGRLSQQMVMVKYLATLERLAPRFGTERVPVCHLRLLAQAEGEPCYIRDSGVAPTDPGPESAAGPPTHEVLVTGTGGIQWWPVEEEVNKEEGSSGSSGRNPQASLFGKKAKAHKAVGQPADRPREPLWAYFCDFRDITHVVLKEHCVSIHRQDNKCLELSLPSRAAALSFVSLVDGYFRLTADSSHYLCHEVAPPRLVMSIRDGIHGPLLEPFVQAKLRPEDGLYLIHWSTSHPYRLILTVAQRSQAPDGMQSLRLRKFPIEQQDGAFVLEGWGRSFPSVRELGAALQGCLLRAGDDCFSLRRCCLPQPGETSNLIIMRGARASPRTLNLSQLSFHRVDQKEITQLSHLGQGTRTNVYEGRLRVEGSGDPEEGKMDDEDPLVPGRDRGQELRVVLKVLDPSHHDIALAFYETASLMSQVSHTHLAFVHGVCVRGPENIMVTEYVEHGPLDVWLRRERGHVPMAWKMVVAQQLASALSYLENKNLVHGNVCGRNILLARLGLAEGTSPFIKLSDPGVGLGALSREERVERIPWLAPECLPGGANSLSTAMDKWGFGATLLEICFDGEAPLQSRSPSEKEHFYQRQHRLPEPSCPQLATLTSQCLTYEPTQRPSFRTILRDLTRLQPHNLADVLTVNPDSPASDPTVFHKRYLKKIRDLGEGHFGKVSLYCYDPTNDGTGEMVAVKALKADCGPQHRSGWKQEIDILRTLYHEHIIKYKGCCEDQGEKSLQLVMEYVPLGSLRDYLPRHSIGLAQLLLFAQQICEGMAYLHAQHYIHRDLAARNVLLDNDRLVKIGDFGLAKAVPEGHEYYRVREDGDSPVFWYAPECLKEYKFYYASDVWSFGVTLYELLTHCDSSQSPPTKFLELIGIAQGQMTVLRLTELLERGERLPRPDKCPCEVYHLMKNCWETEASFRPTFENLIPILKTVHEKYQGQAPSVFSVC

[4] = molecular target: T4, Recombinant Human Anaplastic Lymphoma Kinase (Homo sapiens, UniProt Q9UM73); assay: ALK HTRF kinase assay; settings: compound at a concentration of 500 nM or 1 mM (not specified); cells shown as percentage
T4 construct: purchased Invitrogen, Carlsbad, Calif
T4 sequence (Q9UM73 19-1620): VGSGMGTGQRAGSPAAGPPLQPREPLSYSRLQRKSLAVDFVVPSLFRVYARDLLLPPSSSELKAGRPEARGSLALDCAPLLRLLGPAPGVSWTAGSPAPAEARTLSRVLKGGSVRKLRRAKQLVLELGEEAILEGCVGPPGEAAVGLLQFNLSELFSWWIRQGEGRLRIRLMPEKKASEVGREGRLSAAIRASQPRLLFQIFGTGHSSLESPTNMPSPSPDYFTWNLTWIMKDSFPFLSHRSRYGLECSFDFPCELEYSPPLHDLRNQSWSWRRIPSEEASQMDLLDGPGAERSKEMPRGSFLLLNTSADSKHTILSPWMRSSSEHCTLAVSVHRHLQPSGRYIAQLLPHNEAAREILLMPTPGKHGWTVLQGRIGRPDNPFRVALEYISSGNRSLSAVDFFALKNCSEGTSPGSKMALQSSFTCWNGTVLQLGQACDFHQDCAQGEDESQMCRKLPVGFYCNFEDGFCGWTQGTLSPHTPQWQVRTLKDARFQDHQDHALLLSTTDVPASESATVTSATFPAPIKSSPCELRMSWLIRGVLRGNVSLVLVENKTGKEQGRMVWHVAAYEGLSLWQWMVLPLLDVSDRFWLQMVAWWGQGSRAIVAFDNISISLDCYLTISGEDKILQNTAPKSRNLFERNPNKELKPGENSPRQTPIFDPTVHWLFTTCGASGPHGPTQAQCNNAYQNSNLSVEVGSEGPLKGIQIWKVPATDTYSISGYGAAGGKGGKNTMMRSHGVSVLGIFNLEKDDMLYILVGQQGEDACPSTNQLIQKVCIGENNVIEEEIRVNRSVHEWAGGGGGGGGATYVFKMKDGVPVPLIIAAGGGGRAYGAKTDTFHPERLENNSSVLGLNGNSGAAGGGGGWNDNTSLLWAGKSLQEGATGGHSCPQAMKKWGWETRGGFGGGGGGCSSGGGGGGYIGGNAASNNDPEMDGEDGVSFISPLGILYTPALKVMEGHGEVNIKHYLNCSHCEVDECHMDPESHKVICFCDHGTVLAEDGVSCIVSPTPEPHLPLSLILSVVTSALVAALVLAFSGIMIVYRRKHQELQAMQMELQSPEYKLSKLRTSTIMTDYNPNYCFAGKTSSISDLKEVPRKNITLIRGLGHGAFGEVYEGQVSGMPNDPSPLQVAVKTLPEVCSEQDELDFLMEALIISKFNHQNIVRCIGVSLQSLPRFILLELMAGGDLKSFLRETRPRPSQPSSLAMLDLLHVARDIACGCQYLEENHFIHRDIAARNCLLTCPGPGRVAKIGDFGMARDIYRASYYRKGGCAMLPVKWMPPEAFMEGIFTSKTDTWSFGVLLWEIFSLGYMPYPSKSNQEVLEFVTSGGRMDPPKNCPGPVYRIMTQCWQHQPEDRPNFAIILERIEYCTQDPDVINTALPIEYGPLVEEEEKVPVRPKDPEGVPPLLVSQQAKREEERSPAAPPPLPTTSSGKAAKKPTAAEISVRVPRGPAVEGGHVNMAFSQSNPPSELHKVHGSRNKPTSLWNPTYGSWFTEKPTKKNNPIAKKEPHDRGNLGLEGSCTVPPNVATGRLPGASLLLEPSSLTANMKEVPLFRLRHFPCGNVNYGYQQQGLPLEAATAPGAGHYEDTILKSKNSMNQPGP
Method in brief: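 Compounds were incubated with recombinant human ALK and a biotin-tagged peptide substrate. Product was captured with streptavidin-APC and probed with a europium anti-phosphotyrosine antibody, and plates were read for time-resolved fluorescence. Dose-response data were fitted to derive IC50.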

SMILES | pIC50 [1] | pIC50 [2] | pIC50 [3] | pIC50 (TYK2) | ALK % of inhibition at a concentration of 500 nM or 1 mM [4]
Cc1ccnc(Nc2ccc3cc2CCc2cccc(c2)Nc2ncc(Cl)c(n2)N3)n1 [Example B276, 6-Chloro-N-(4-methylpyrimidin-2-yl)-2,4,8,22-tetraazatetracyclo[14.3.1.1(3,7).1(9,13)]docosa-1(20),3(22),4,6,9(21),10,12,16,18-nonaen-12-amine bis(trifluoroacetate)] | 8.19 | 7.96 | 5.93 | 7.47 | 22%
Oc1ccnc(Nc2ccc3cc2CCc2cccc(c2)Nc2ncc(Cl)c(n2)N3)n1 [Example B277, 2-{[6-Chloro-2,4,8,22-tetraazatetracyclo[14.3.1.1(3,7).1(9,13)]docosa-1(20),3(22),4,6,9(21),10,12,16,18-nonaen-12-yl]amino}pyrimidin-4-ol bis(trifluoroacetate)] | 8.32 | 8.23 | 6.44 | 7.21 | 54%
CCOC(=O)c1coc(Nc2ccc3cc2CCc2cccc(c2)Nc2ncc(Cl)c(n2)N3)n1 [Example B278, Ethyl 2-{[6-chloro-2,4,8,22-tetraazatetracyclo[14.3.1.1(3,7).1(9,13)]docosa-1(20),3(22),4,6,9(21),10,12,16,18-nonaen-12-yl]amino}-1,3-oxazole-4-carboxylate bis(trifluoroacetate)] | 7.33 | 6.90 | 5.73 | 6.65 | 10%
Clc1cnc2nc1Nc1ccc(Nc3nccc(-c4ccccc4)n3)c(c1)CCc1cccc(c1)N2 [Example B279, 6-Chloro-N-(4-phenylpyrimidin-2-yl)-2,4,8,22-tetraazatetracyclo[14.3.1.1(3,7).1(9,13)]docosa-1(20),3(22),4,6,9(21),10,12,16,18-nonaen-12-amine tris(trifluoroacetate)] | 7.07 | 6.80 | < 5.00 | 6.26 | 0.76%
Cc1cc(C(=O)Nc2ccc3cc2CCc2cccc(c2)Nc2ncc(Cl)c(n2)N3)nc(Cl)n1 [Example B280, 2-Chloro-N-[6-chloro-2,4,8,22-tetraazatetracyclo[14.3.1.1(3,7).1(9,13)]docosa-1(20),3(22),4,6,9(21),10,12,16,18-nonaen-12-yl]-6-methylpyrimidine-4-carboxamide bis(trifluoroacetate)] | 6.56 | 6.35 | < 5.00 | 5.75 | 4.6%
NC1CCN(c2ccnc(Nc3ccc4cc3CCc3cccc(c3)Nc3ncc(Cl)c(n3)N4)n2)CC1 [Example B281, N-[4-(4-Aminopiperidin-1-yl)pyrimidin-2-yl]-6-chloro-2,4,8,22-tetraazatetracyclo[14.3.1.1(3,7).1(9,13)]docosa-1(20),3(22),4,6,9(21),10,12,16,18-nonaen-12-amine tris(trifluoroacetate)] | 7.82 | 6.82 | 5.85 | 5.64 | 24%
CN(C(=O)Nc1ccc2cc1CCc1cccc(c1)Nc1ncc(Cl)c(n1)N2)[C@H]1CCN(Cc2ccccc2)C1 [Example B283, N-[(3S)-1-Benzylpyrrolidin-3-yl]-N′-[6-chloro-2,4,8,22-tetraazatetracyclo[14.3.1.1(3,7).1(9,13)]docosa-1(20),3(22),4,6,9(21),10,12,16,18-nonaen-12-yl]-N-methylurea] | 6.85 | 6.78 | < 6.00 | 6.26 | 30%
CN(C(=O)Nc1ccc2cc1CCc1cncc(c1)Nc1ncc(Cl)c(n1)N2)[C@H]1CCN(Cc2ccccc2)C1 [Example B284, N-[(3S)-1-Benzylpyrrolidin-3-yl]-N′-[6-chloro-2,4,8,18,22-pentaazatetracyclo[14.3.1.1(3,7).1(9,13)]docosa-1(20),3(22),4,6,9(21),10,12,16,18-nonaen-12-yl]-N-methylurea] | 7.14 | 6.43 | < 6.00 | 6.39 | 25%
O=C(Nc1ccc2cc1CCc1cncc(c1)Nc1ncc(Cl)c(n1)N2)N1CCNCC1 [Example B285, N-[6-Chloro-2,4,8,18,22-pentaazatetracyclo[14.3.1.1(3,7).1(9,13)]docosa-1(20),3(22),4,6,9(21),10,12,16,18-nonaen-12-yl]piperazine-1-carboxamidetrihydrochloride] | 7.00 | < 6.70 | < 6.70 | < 6.70 | 38%

Now from value to compound:

pIC50 [1] | pIC50 [2] | pIC50 [3] | pIC50 (TYK2) | ALK % of inhibition at a concentration of 500 nM or 1 mM [4] | SMILES
7.89 | 6.39 | < 5.00 | 6.14 | 10% | Cn1cc(C(=O)N2CC[C@H](NC(=O)Nc3ccc4cc3CCc3cncc(c3)Nc3ncc(Cl)c(n3)N4)C2)cn1 [Example B269, N-[6-Chloro-2,4,8,18,22-pentaazatetracyclo[14.3.1.1(3,7).1(9,13)]docosa-1(20),3(22),4,6,9(21),10,12,16,18-nonaen-12-yl]-N′-{(3S)-1-[(1-methyl-1H-pyrazol-4-yl)carbonyl]pyrrolidin-3-yl}urea bis(trifluoroacetate)]
7.70 | 6.55 | < 5.00 | 6.22 | 10% | O=C(Nc1ccc2cc1CCc1cncc(c1)Nc1ncc(Cl)c(n1)N2)N[C@H]1CCN(C(=O)c2cc(C3CC3)on2)C1 [Example B270, N-[6-Chloro-2,4,8,18,22-pentaazatetracyclo[14.3.1.1(3,7).1(9,13)]docosa-1(20),3(22),4,6,9(21),10,12,16,18-nonaen-12-yl]-N′-{(3S)-1-[(5-cyclopropylisoxazol-3-yl)carbonyl]pyrrolidin-3-yl}urea bis(trifluoroacetate)]
8.06 | 6.36 | < 5.00 | 6.07 | 10% | O=C(Nc1ccc2cc1CCc1cncc(c1)Nc1ncc(Cl)c(n1)N2)N[C@H]1CCN(C(=O)c2ccno2)C1 [Example B271, N-[6-Chloro-2,4,8,18,22-pentaazatetracyclo[14.3.1.1(3,7).1(9,13)]docosa-1(20),3(22),4,6,9(21),10,12,16,18-nonaen-12-yl]-N′-[(3S)-1-(isoxazol-5-ylcarbonyl)pyrrolidin-3-yl]urea bis(trifluoroacetate)]
7.85 | 6.50 | < 5.00 | 6.24 | 23% | Cn1ccc(C(=O)N2CC[C@H](NC(=O)Nc3ccc4cc3CCc3cncc(c3)Nc3ncc(Cl)c(n3)N4)C2)n1 [Example B272, N-[6-Chloro-2,4,8,18,22-pentaazatetracyclo[14.3.1.1(3,7).1(9,13)]docosa-1(20),3(22),4,6,9(21),10,12,16,18-nonaen-12-yl]-N′-{(3S)-1-[(1-methyl-1H-pyrazol-3-yl)carbonyl]pyrrolidin-3-yl}urea bis(trifluoroacetate)]
6.93 | 5.79 | < 5.00 | 5.42 | 3.2% | Cc1ncoc1C(=O)N1CC[C@H](NC(=O)Nc2ccc3cc2CCc2cncc(c2)Nc2ncc(Cl)c(n2)N3)C1 [Example B273, N-[6-Chloro-2,4,8,18,22-pentaazatetracyclo[14.3.1.1(3,7).1(9,13)]docosa-1(20),3(22),4,6,9(21),10,12,16,18-nonaen-12-yl]-N′-{(3S)-1-[(4-methyl-1,3-oxazol-5-yl)carbonyl]pyrrolidin-3-yl}urea bis(trifluoroacetate)]
7.22 | 6.72 | < 5.00 | 6.49 | 18% | Cc1noc(C)c1C(=O)N1CC[C@H](NC(=O)Nc2ccc3cc2CCc2cncc(c2)Nc2ncc(Cl)c(n2)N3)C1 [Example B274, N-[6-chloro-2,4,8,18,22-pentaazatetracyclo[14.3.1.1(3,7).1(9,13)]docosa-1(20),3(22),4,6,9(21),10,12,16,18-nonaen-12-yl]-N′-{(3S)-1-[(3,5-dimethylisoxazol-4-yl)carbonyl]pyrrolidin-3-yl}urea bis(trifluoroacetate)]
7.85 | 6.89 | < 5.00 | 6.46 | 9.8% | O=C(Nc1ccc2cc1CCc1cncc(c1)Nc1ncc(Cl)c(n1)N2)N[C@H]1CCN(c2nc3cccnc3o2)C1 [Example B275, N-[6-Chloro-2,4,8,18,22-pentaazatetracyclo[14.3.1.1(3,7).1(9,13)]docosa-1(20),3(22),4,6,9(21),10,12,16,18-nonaen-12-yl]-N′-[(3S)-1-[1,3]oxazolo[5,4-b]pyridin-2-ylpyrrolidin-3-yl]urea tris(trifluoroacetate)]
